Assay results as given in paper PMC2731242, “Oleic Acid Biosynthesis in Plasmodium falciparum: Characterization of the Stearoyl-CoA Desaturase and Investigation as a Potential Therapeutic Target” (PLoS ONE, 2009).

Target: T1, stearoyl-CoA Δ9-desaturase (PfSCD, PFE0555w) (Plasmodium falciparum, UniProt Q8I0W9)
T1 construct: gene PF3D7_0511200; native enzyme in crude schizont lysate (500 µg total protein)
Experiment: cell-free desaturase assay in schizont lysates, […]-stearoyl-CoA to oleic acid, silver nitrate TLC
Format: biochemical

T1 sequence (Q8I0W9 entry or part of it, stated change not applied): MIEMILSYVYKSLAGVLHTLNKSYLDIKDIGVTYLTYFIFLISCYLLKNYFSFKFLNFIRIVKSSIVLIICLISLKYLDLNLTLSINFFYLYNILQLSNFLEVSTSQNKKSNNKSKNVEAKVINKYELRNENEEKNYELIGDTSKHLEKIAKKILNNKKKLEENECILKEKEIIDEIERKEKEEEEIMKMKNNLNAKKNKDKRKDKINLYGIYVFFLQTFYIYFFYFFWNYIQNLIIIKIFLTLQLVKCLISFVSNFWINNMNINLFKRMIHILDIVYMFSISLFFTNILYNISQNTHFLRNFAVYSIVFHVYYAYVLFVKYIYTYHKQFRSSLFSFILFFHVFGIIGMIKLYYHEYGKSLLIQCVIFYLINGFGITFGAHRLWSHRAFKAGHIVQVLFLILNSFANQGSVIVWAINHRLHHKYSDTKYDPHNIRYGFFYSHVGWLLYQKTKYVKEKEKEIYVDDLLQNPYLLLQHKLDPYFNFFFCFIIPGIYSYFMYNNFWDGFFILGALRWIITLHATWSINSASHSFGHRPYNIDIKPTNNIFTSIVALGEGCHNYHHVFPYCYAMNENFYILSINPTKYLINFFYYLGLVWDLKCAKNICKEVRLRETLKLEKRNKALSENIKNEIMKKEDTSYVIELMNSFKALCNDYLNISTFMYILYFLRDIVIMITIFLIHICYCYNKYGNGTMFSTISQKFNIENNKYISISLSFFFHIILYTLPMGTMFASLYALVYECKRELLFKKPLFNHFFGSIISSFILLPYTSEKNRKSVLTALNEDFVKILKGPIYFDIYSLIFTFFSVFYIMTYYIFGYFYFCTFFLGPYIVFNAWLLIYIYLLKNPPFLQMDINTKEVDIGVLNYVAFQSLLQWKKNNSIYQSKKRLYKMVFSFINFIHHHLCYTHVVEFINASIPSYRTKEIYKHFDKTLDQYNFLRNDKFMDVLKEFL

IC50: 105 µM
Compound: CCCCCCCCC1=C(CCCCCCCC(=O)OC)C1 [MeSter, methyl sterculate]
